{"source": "patent US11135223B2", "about": "“Compositions and methods for inhibiting Dkk-1” (YALE UNIVERSITY, priority 2016, dated 2021)", "system": "L. major", "test": "Leishmania (L.) major infection model", "format": "in vivo, BALB/c mice", "method": "FIG. 4, comprising FIG. 4A through FIG. 4H, depicts results of experiments showing functional inhibition of Dkk-1 protects the host from chronic inflammation caused by L. major. FIG. 4A depicts a schematic diagram for Dkk-1 inhibitor treatment (10 μg/kg/time) in six-week-old female BALB/c mice. FIG. 4B depicts analysis of parasite burden in the infected foot from each mouse at day 42. FIG. 4C depicts the lesion size in the infected foot from each mouse at day 42. FIG. 4D depicts the cell count of macrophages in the infected hindfoot of mice two weeks after vehicle (n=5) or Dkk-1 inhibitor treatment (n=5) counted by flow cytometry and compared with infected (untreated) and uninfected BALB/c mice (n=3). FIG. 4E depicts results of draining lymph node cells from each mouse (n=5/group) that were stimulated with sLMAG (soluble leishmania antigen) 2 weeks after infection. FIG. 4F depicts results of draining lymph node cells from each mouse (n=5/group) were stimulated with sLMAG 6 weeks after infection. FIG. 4G depicts the CD4 cell percentage in draining lymph nodes from each group was determined by flow cytometry. FIG. 4H depicts CD4 T cell numbers in draining lymph nodes from each group was determined by flow cytometry. A representative of two independent experiments is shown. Student's t-test and one-way-ANOVA analysis with Dunnet's post-hoc test were performed. **, p<0.005, *, p<0.05.\nFIG. 17, comprising FIG. 17A and FIG. 17B, depicts results of experiments showing a Dkk-1 monoclonal antibody treatment protects BALB/c mice from chronic inflammation caused by L. major. FIG. 17A depicts the number lymph node cells were in L. major infected BALB/c mice injected with a Dkk-1 monoclonal antibody or isotype control antibody. BALB/c mice were infected with L. major (2 million parasites/animal) on day 0. Dkk-1 mAb or isotype control antibody (100 μg/injection) was injected intraperitoneally into six-week-old female BALB/c mice on day −1, +1, +3, +5, +7, +9, +11, +14 (n=6). On day 14, mice were sacrificed, and their drained lymph node cells were counted. Student's t-test was performed. *,p<0.05. FIG. 17B depicts the lesion size in BALB/c mice injected with a Dkk-1 monoclonal antibody or isotype control antibody. Six-week-old female BALB/c mice were infected with L.major, and DKK-1 mAb was treated intraperitoneally on day −1, +1, +3, +5, +7, +9, +11, +14, +21 and +28. Lesion size for each mouse was measured on day 12, 22, and 32. Student's t-test was performed. *, p<0.05.\nL. major WR309 strain (MHOM/IL/79/LRC-L251) was originally isolated from a human case of cutaneous leishmaniasis in Israel and has been maintained through culture and frequent passages in mice to maintain virulence. BALB/c mice were infected with 2×10^6 late stationary promastigotes isolated from a Percoll gradient. For monitoring 2 week and 6 week experiments, Dkk-1 inhibitor (10 mg/kg) or vehicle (50 μl DMSO) was injected on day −1, +1, +3, +5, +7, +9, +11 and weekly afterwards till harvest. Draining lymph nodes, nondraining lymph nodes, and plasma were collected. For ex vivo analysis, soluble Leishmania major antigen (sLMAg) was employed. Single cell suspension of draining and non-draining lymph node cells was incubated with sLMAg (equivalent to 5×10^6 organisms/ml final) for 96 hr. Supernatants were harvested and analyzed by ELISA assays. For depleting platelets, 80 μg of anti-CD42 mAb (Emfret Analytical) was injected intravenously in 100 μl PBS. Equal amounts of isotype-matched control Ab (eBioscience) was used for control group animals. Tissues from mice were harvested on day 3 post-infection for analysis.\nTo determine the ability of an anti-Dkk-1 monoclonal antibody (Dkk-1 mAb) to protect BALB/c mice against chronic inflammation caused by L. major, 6-week old BALB/c mice were infected with L.major (2 million parasites/animal) on day 0. A Dkk-1 mAb or isotype control antibody (100 μg/injection) was injected intraperitoneally on day −1, +1, +3, +5, +7, +9, +11, +14 (n=6). […]", "key": {"[1]": {"conditions": "BALB/c mice, infected foot, 42 days post-infection"}, "[2]": {"conditions": "days 14 and 42 post-infection, ex vivo stimulation of draining lymph node cells with sLMAG"}}}
{"smiles": "NCC1CCN(c2nccc(-c3ccc4ccccc4c3)n2)CC1", "note": "[WAY-262611, (1-(4-(naphthalen-2-yl)pyrimidin-2-yl)piperidin-4-yl)methanamine]", "values": [{"measurement": "reduction of parasite survival", "setting": "BALB/c mice, 10 mg/kg intraperitoneally, 42 days post-infection", "value": 11.5, "unit": "fold"}, {"measurement": "lesion size", "setting": "[1]", "value": "greatly reduced"}, {"measurement": "parasite burden", "setting": "[1]", "value": "greatly reduced"}, {"measurement": "percentage of CD4 T cells in draining lymph nodes (dLN)", "setting": "FIG. 4G", "value": "did not reduce"}, {"measurement": "number of CD4 T cells in the dLN", "setting": "FIG. 4H", "value": "reduced"}, {"measurement": "IL-4 production", "setting": "[2]", "value": "notably reduced"}, {"measurement": "IL-10 production", "setting": "[2]", "value": "notably reduced"}, {"measurement": "Macrophage accumulation following parasite infection", "setting": "infected hindfoot, 14 days after infection", "value": "diminished"}]}
